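Where inhibition never reached the appropriate level, the endpoint shown equals the highest concentration tested. Otherwise, values were interpolated linearly from a five-concentration, 48-hour dose response in 96-well plates. GI50 = concentration required for 50% inhibition of growth. Definition used: TGI = concentration required for complete inhibition of growth.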 Where a SMILES comes first, the peptide text is derived from it. The star is where a group is joined. Trt = c1ccc(C(c2ccccc2)(c2ccccc2)*)cc1; Cbz = O=C(OCc1ccccc1)*

Some test systems named below: SF-295 CNS; RXF 393 renal; UACC-62 melanoma; SNB-19 CNS; HT29 colon; SK-MEL-5 melanoma; RPMI-8226 leukemia; SK-MEL-2 melanoma; OVCAR-5 ovarian; HS 578T breast.
Holding throughout (assay): NCI tumour cell line growth inhibition, 48 h

Take `O=C1/C(=C/c2ccc(Cl)c(Cl)c2)CN(C(=O)C(Cl)Cl)C/C1=C\c1ccc(Cl)c(Cl)c1`: the GI50 was 0.154 µM in the experiment on SF-295 CNS; 0.164 µM in the experiment on RXF 393 renal; 0.197 µM in the experiment with UACC-62 melanoma; 0.11 µM with SNB-19 CNS; 0.071 µM with HT29 colon; 0.196 µM in the experiment on SK-MEL-5 melanoma. The GI50 with RPMI-8226 leukemia is 0.0285 µM; in the experiment with SK-MEL-2 melanoma, 0.801 µM; in the experiment with OVCAR-5 ovarian, 0.204 µM; in the experiment with HS 578T breast it was 0.355 µM. Besides, the TGI in the experiment with SF-295 CNS was 0.704 µM; in the experiment with RXF 393 renal it was 0.337 µM; in the experiment on UACC-62 melanoma, 0.459 µM; in the experiment on SNB-19 CNS, 0.306 µM; in the experiment with HT29 colon it was 2.07 µM; in the experiment with SK-MEL-5 melanoma it was 0.418 µM. Moreover, the TGI in the experiment with RPMI-8226 leukemia turned out to be 0.485 µM; in the experiment on SK-MEL-2 melanoma, 3.14 µM; in the experiment with OVCAR-5 ovarian, 0.545 µM; in the experiment on HS 578T breast, 3.79 µM.

Consider `CC(C)=CCc1cc2c(cc1O)C1=C(C(=O)C3=C(C1=O)S(=O)(=O)CCN3)C(C=C(C)C)O2` (centres undefined), for which the GI50 is 2.38 µM in the experiment on SF-295 CNS; 0.596 µM in the experiment with RXF 393 renal; 0.419 µM in the experiment on UACC-62 melanoma; 0.651 µM in the experiment with SNB-19 CNS; 0.634 µM in the experiment with HT29 colon; 0.284 µM with SK-MEL-5 melanoma. For the same compound, the GI50 with RPMI-8226 leukemia is 3.38 µM; in the experiment on SK-MEL-2 melanoma it was 1.44 µM; in the experiment with OVCAR-5 ovarian, 2.73 µM; in the experiment with HS 578T breast it was 1.31 µM. The TGI was determined as 5.1 µM in the experiment on SF-295 CNS; 2.26 µM in the experiment on RXF 393 renal; 1.21 µM in the experiment with UACC-62 melanoma; 2.64 µM with SNB-19 CNS; 2.22 µM with HT29 colon; 0.66 µM with SK-MEL-5 melanoma. Besides, the TGI is 10.1 µM in the experiment on RPMI-8226 leukemia, 5.29 µM in the experiment on SK-MEL-2 melanoma, 5.93 µM in the experiment on OVCAR-5 ovarian and 8.15 µM in the experiment with HS 578T breast.

Consider `COC(=O)C(CO)NC(=O)C(CSC(c1ccccc1)(c1ccccc1)c1ccccc1)NC(=O)OCc1ccccc1` (centres undefined) (Cbz-Cys(Trt)-Ser-OMe; configuration not given here), for which the TGI in the experiment with SF-295 CNS was found to be 34.5 µM; in the experiment with RXF 393 renal, 32.5 µM; with UACC-62 melanoma it was 24.9 µM; with SNB-19 CNS, 50.7 µM; with HT29 colon it was 33.3 µM; in the experiment on SK-MEL-5 melanoma, 28.4 µM. Besides, the TGI in the experiment on RPMI-8226 leukemia amounted to 5.55 µM; with SK-MEL-2 melanoma, 34.5 µM; with OVCAR-5 ovarian it was 35.3 µM; in the experiment with HS 578T breast it was 47.9 µM.

For `CC(=O)Nc1ccc(C(=O)CCl)cc1`, the GI50 in the experiment with SF-295 CNS was 16 µM; with RXF 393 renal, 3.41 µM; in the experiment with UACC-62 melanoma, 8.3 µM; in the experiment on SNB-19 CNS it was 17.2 µM; in the experiment on HT29 colon, 2.45 µM; with SK-MEL-5 melanoma it was 15.9 µM. Also, the GI50 is 2.95 µM in the experiment on RPMI-8226 leukemia, 13.3 µM in the experiment on SK-MEL-2 melanoma, 12.2 µM with OVCAR-5 ovarian and 17.7 µM in the experiment on HS 578T breast. Besides, the TGI with SF-295 CNS is 33.7 µM; in the experiment with RXF 393 renal, 11.6 µM; with UACC-62 melanoma it was 21.6 µM; in the experiment with SNB-19 CNS, 45.1 µM; in the experiment with HT29 colon, 5.04 µM; in the experiment with SK-MEL-5 melanoma, 31 µM. The TGI in the experiment with RPMI-8226 leukemia stood at 10 µM; in the experiment with SK-MEL-2 melanoma, 27.8 µM; with OVCAR-5 ovarian, 26.1 µM; in the experiment on HS 578T breast, 80.5 µM.

Consider `Oc1ccc(Cl)cc1C(c1cc(Cl)ccc1O)C(Cl)(Cl)Cl`, for which the GI50 was 1.97 µM with SF-295 CNS; 1.95 µM in the experiment with RXF 393 renal; 1.59 µM with UACC-62 melanoma; 3.24 µM in the experiment on SNB-19 CNS; 2.05 µM with HT29 colon; 1.58 µM with SK-MEL-5 melanoma. Moreover, the GI50 with RPMI-8226 leukemia is 2.72 µM; in the experiment with SK-MEL-2 melanoma, 2.12 µM; with OVCAR-5 ovarian it was 1.66 µM; in the experiment on HS 578T breast, 1.81 µM. For the same compound, the TGI amounted to 4.76 µM in the experiment with SF-295 CNS; 4.16 µM in the experiment on RXF 393 renal; 3.82 µM with UACC-62 melanoma; 10.8 µM with SNB-19 CNS; 4 µM with HT29 colon; 3.05 µM in the experiment on SK-MEL-5 melanoma. The TGI with RPMI-8226 leukemia is 8.4 µM; in the experiment on SK-MEL-2 melanoma, 5.36 µM; in the experiment with OVCAR-5 ovarian, 3.68 µM; in the experiment on HS 578T breast, 4.45 µM.

In the case of `Clc1nccc2c(-c3csc(-c4c[nH]c5ccc(Br)cc45)n3)c[nH]c12`, the GI50 in the experiment on SF-295 CNS was 2.48 µM; with RXF 393 renal it was 1.48 µM; in the experiment with UACC-62 melanoma, 2.19 µM; with SNB-19 CNS, 3.25 µM; with HT29 colon, 2.66 µM; with SK-MEL-5 melanoma, 2.61 µM. Also, the GI50 was 4.03 µM in the experiment with RPMI-8226 leukemia, 4.09 µM in the experiment on SK-MEL-2 melanoma, 3.14 µM in the experiment on OVCAR-5 ovarian and 3.7 µM in the experiment with HS 578T breast. In addition, the TGI was 5.61 µM in the experiment on SF-295 CNS; 3.43 µM in the experiment with RXF 393 renal; 4.84 µM with UACC-62 melanoma; 11.6 µM in the experiment on SNB-19 CNS; 8.22 µM with HT29 colon; 6.42 µM in the experiment on SK-MEL-5 melanoma. The TGI in the experiment with RPMI-8226 leukemia came out at 39 µM; in the experiment on SK-MEL-2 melanoma it was 16.4 µM; in the experiment on OVCAR-5 ovarian, 9.88 µM; with HS 578T breast it was 17.8 µM.

Take `CO[C@H]1C[C@@H]2CC[C@@H](C)[C@@](O)(O2)C(=O)C(=O)N2CCCC[C@H]2C(=O)O[C@H]([C@H](C)C[C@@H]2CC[C@@H](OC(=O)C(C)(CO)CO)[C@H](OC)C2)CC(=O)[C@H](C)/C=C(\C)[C@@H](O)[C@@H](OC)C(=O)[C@H](C)C[C@H](C)\C=C/C=C/C=C/1C`: the GI50 with SF-295 CNS is below 0.001 µM; in the experiment with RXF 393 renal, below 0.001 µM; in the experiment on UACC-62 melanoma, 0.0087 µM; with HT29 colon it was 1.47 µM; in the experiment with SK-MEL-5 melanoma, 1.35 µM; in the experiment with RPMI-8226 leukemia it was 0.00102 µM. Besides, the GI50 was 1.68 µM in the experiment on SK-MEL-2 melanoma, above 6.89 µM in the experiment on OVCAR-5 ovarian and 0.00133 µM in the experiment on HS 578T breast. Moreover, the TGI in the experiment on SF-295 CNS, with RXF 393 renal, in the experiment on UACC-62 melanoma, in the experiment with SNB-19 CNS, in the experiment on HT29 colon and in the experiment with SK-MEL-5 melanoma was above 10 µM throughout. For the same compound, the TGI with RPMI-8226 leukemia, in the experiment on SK-MEL-2 melanoma, in the experiment with OVCAR-5 ovarian and in the experiment on HS 578T breast was above 10 µM throughout.

For the origin of these results see PubChem BioAssay (NCI).
